Key:
Type in all cases: functional
Escherichia coli = experiment: Antimicrobial activity against Escherichia coli assessed per disk
Candida albicans = experiment: Antimicrobial activity against Candida albicans assessed per disk
CCRF-CEM = experiment: Growth inhibition of human CCRF-CEM cells
HL-60(TB) = experiment: Growth inhibition of human HL-60(TB) cells
MOLT-4 = experiment: Growth inhibition of human MOLT4 cells
SR = experiment: Growth inhibition of human SR cells
A549 = experiment: Growth inhibition of human A549 cells
EKVX = experiment: Growth inhibition of human EKVX cells
HOP-62 = experiment: Growth inhibition of human HOP62 cells
NCI-H226 = experiment: Growth inhibition of human NCI-H226 cells
NCI-H23 = experiment: Growth inhibition of human NCI-H23 cells
NCI-H322M = experiment: Growth inhibition of human NCI-H322M cells
NCI-H460 = experiment: Growth inhibition of human NCI-H460 cells
NCI-H522 = experiment: Growth inhibition of human NCI-H522 cells
COLO 205 = experiment: Growth inhibition of human COLO205 cells
HCC 2998 = experiment: Growth inhibition of human HCC2998 cells
HCT-116 = experiment: Growth inhibition of human HCT116 cells
HCT-15 = experiment: Growth inhibition of human HCT15 cells
SW-620 = experiment: Growth inhibition of human SW620 cells
SF-268 = experiment: Growth inhibition of human SF268 cells
SF-295 = experiment: Growth inhibition of human SF295 cells
SNB-19 = experiment: Growth inhibition of human SNB19 cells
SNB-75 = experiment: Growth inhibition of human SNB75 cells
[1] = read-out: LC50 (the source's name)

`COc1cn2c(cc1=O)C(=O)c1ccnc(CC(C)C)c1-2` [PTEROCELLIN A] was tested, and the MIC (Escherichia coli) was over 60 µg, the MIC (Candida albicans) was over 60 µg and the GI50 (CCRF-CEM) was 0.05 µM. The TGI (CCRF-CEM) was 0.8 µM, the CC50 (CCRF-CEM; [1]) was over 100 µM and the GI50 (HL-60(TB)) was 3 µM. The TGI (HL-60(TB)) was over 100 µM, the CC50 (HL-60(TB); [1]) was over 100 µM and the GI50 (MOLT-4) was 3.5 µM. It also gave an LC50 (concentration killing 50% of cells) (MOLT-4) of over 100 µM, a TGI (MOLT-4) of over 100 µM and a GI50 (SR) of 2 µM. For the same compound, the TGI (SR) was over 100 µM, the CC50 (SR; [1]) was over 100 µM and the GI50 (A549) was 1.3 µM. The LC50 (50% cell kill concentration) (A549) was over 100 µM, the TGI (A549) was 5.1 µM and the GI50 (EKVX) was 2.1 µM. The TGI (EKVX) was 5.8 µM, the CC50 (EKVX; [1]) was 23.6 µM and the GI50 (HOP-62) was 1.7 µM. For the same compound, the TGI (HOP-62) was 3.1 µM, the CC50 (HOP-62; [1]) was 5.6 µM and the GI50 (NCI-H226) was 1.7 µM. For the same compound, the TGI (NCI-H226) was 3.5 µM, the CC50 (NCI-H226; [1]) was 7.4 µM and the GI50 (NCI-H23) was 0.3 µM. The LC50 (concentration causing 50% net cell kill) (NCI-H23) was 6.1 µM, the TGI (NCI-H23) was 1 µM and the GI50 (NCI-H322M) was 1.6 µM. For the same compound, the LC50 (concentration killing 50% of cells) (NCI-H322M) was 5.6 µM, the TGI (NCI-H322M) was 3 µM and the GI50 (NCI-H460) was 0.8 µM. For the same compound, the LC50 (concentration causing 50% cell kill) (NCI-H460) was 7.1 µM, the TGI (NCI-H460) was 2.6 µM and the GI50 (NCI-H522) was 1.7 µM. For the same compound, the TGI (NCI-H522) was 3.3 µM, the CC50 (NCI-H522; [1]) was 6.5 µM and the GI50 (COLO 205) was 1.6 µM. It also gave a TGI (COLO 205) of 3.7 µM, a CC50 (COLO 205; [1]) of 8.4 µM and a GI50 (HCC 2998) of 1.6 µM. The LC50 (concentration killing 50% of cells) (HCC 2998) was 6 µM, the TGI (HCC 2998) was 3.1 µM and the GI50 (HCT-116) was 1.1 µM. The LC50 (HCT-116) was 11.2 µM, the TGI (HCT-116) was 2.5 µM and the GI50 (HCT-15) was 1.6 µM. It also gave a TGI (HCT-15) of 4.2 µM, a CC50 (HCT-15; [1]) of 17.3 µM and a GI50 (SW-620) of 1.5 µM. For the same compound, the LC50 (concentration killing 50% of cells) (SW-620) was 6.2 µM, the TGI (SW-620) was 3.1 µM and the GI50 (SF-268) was 2.1 µM. For the same compound, the LC50 (concentration killing 50% of cells) (SF-268) was 26.7 µM, the TGI (SF-268) was 6.7 µM and the GI50 (SF-295) was 1.3 µM. It also gave an LC50 (concentration killing 50% of starting cells) (SF-295) of 5.2 µM, a TGI (SF-295) of 2.6 µM and a GI50 (SNB-19) of 2.9 µM. The TGI (SNB-19) was 11.4 µM, the CC50 (SNB-19; [1]) was 60 µM and the GI50 (SNB-75) was 1.4 µM. It also gave a TGI (SNB-75) of 3.9 µM.

Source: ChEMBL document CHEMBL1146569, “The pterocellins, novel bioactive alkaloids from the marine bryozoan Pterocella vesiculosa” (J Nat Prod, 2003)
